Experimental data: patent publication EP2649091B1, “IMMUNE RESTRICTED PEPTIDES WITH INCREASED EFFICACY” (Stichting Het Nederlands Kanker Instituut, priority 2010, dated 2012)
Several values for one entry are separate records, joined by “and”; a condition that tells them apart may be missing. Equal values may be shown once.

Assays:
[1] = molecular target: HLA-A0201 (Homo sapiens, UniProt P04439, D140Y/D185E/D98H/E176V/E277Q/G131W/G231S/I119V/I121R/I166T/I218V/L300P/L318F/N151K/N90K/P208A/P217A/Q86G/Q94H/R138H/R169H/T345S); format: binding
[2] = tested on: CD8+ T cells from Influenza A positive donors sorted using tetramers containing HLA A2.1::[…]; format: cell-based
[3] = tested on: CD8+ T cells from Influenza A positive donors sorted using tetramers containing HLA A2.1::[…]; format: cell-based; remark: listed apart in the source
[4] = tested on: HLA-A2::Mart-1(26-35) reactive T cells stimulated by T2 cells; test: T cell activation time course assay, IFNγ production (FACS), Mart-1 epitope; format: cell-based; settings: for % CD8+ T cells producing IFN-γ 0H / Geometric mean IFN-γ in arbitrary fluorescence units 0H: time point 0H (basal); for % CD8+ T cells producing IFN-γ 2H / Geometric mean IFN-γ in arbitrary fluorescence units 2H: time point 2H; for % CD8+ T cells producing IFN-γ 4H / Geometric mean IFN-γ in arbitrary fluorescence units 4H: time point 4H; for % CD8+ T cells producing IFN-γ 24H / Geometric mean IFN-γ in arbitrary fluorescence units 24H: time point 24H; for % CD8+ T cells producing IFN-γ 24H / Geometric mean IFN-γ in arbitrary fluorescence units 24H / % CD8+ T cells producing IFN-γ 48H / Geometric mean IFN-γ in arbitrary fluorescence units 48H: free peptide washed away; for % CD8+ T cells producing IFN-γ 48H / Geometric mean IFN-γ in arbitrary fluorescence units 48H: time point 48H

| Substance | % inhibition at T=4H and T=24H FP 4h [1] [%] | % inhibition at T=4H and T=24H FP 24h [1] [%] | IC50 Ratio [1] | % Positive TCR recognition % TCR [2] [%] | Geometric mean IFN in arbitrary fluorescence units Geo TCR [2] | % CD8+ T cells producing IFN-γ % IFN [3] [%] | Geometric mean IFN-γ in arbitrary fluorescence units Geo IFN [3] | % CD8+ T cells producing IFN-γ 0H ([4]; peptide 0.5 pM) [%] | Geometric mean IFN-γ in arbitrary fluorescence units 0H ([4]; peptide 0.5 pM) | % CD8+ T cells producing IFN-γ 2H ([4]; peptide 0.5 pM) [%] | Geometric mean IFN-γ in arbitrary fluorescence units 2H ([4]; peptide 0.5 pM) | % CD8+ T cells producing IFN-γ 4H ([4]; peptide 0.5 pM) [%] | Geometric mean IFN-γ in arbitrary fluorescence units 4H ([4]; peptide 0.5 pM) | % CD8+ T cells producing IFN-γ 24H ([4]; peptide 0.5 pM) [%] | Geometric mean IFN-γ in arbitrary fluorescence units 24H ([4]; peptide 0.5 pM) | % CD8+ T cells producing IFN-γ 48H ([4]; peptide 0.5 pM) [%] | Geometric mean IFN-γ in arbitrary fluorescence units 48H ([4]; peptide 0.5 pM) | % CD8+ T cells producing IFN-γ 0H ([4]; peptide 50 pM) [%] | Geometric mean IFN-γ in arbitrary fluorescence units 0H ([4]; peptide 50 pM) | % CD8+ T cells producing IFN-γ 2H ([4]; peptide 50 pM) [%] | other results |
| --- | --- | --- | --- | --- | --- | --- | --- | --- | --- | --- | --- | --- | --- | --- | --- | --- | --- | --- | --- | --- | --- |
| [am-phg][NLE]LGFV[4-FPHE]TL | 82 | 83 | 3 | 3.40 | 302 arbitrary fluorescence units | 3.0 | 221 arbitrary fluorescence units | – | – | – | – | – | – | – | – | – | – | – | – | – | – |
| [PHG][NLE]LGFVFTL | 77 | 77 | 4 | 3.58 | 328 arbitrary fluorescence units | 2.7 | 238 arbitrary fluorescence units | – | – | – | – | – | – | – | – | – | – | – | – | – | – |
| [am-phg][NVA]LGFV[4-FPHE]TL | – | 97 | 2 | 3.54 | 143 arbitrary fluorescence units | 3.4 | 242 arbitrary fluorescence units | – | – | – | – | – | – | – | – | – | – | – | – | – | – |
| [am-phg][BUTALA]LGFVFTL | – | 96 | 3 | 3.32 | 155 arbitrary fluorescence units | 2.8 | 205 arbitrary fluorescence units | – | – | – | – | – | – | – | – | – | – | – | – | – | – |
| [am-phg][NVA]AGIGILT[ALG] | 58 | 63 | 2.5 and 2 | – | – | – | – | 0 | 112 arbitrary fluorescence units | 26 | 221 arbitrary fluorescence units | 29 | 350 arbitrary fluorescence units | 17 | 163 arbitrary fluorescence units | 5 | 111 arbitrary fluorescence units | 0 | 109 arbitrary fluorescence units | 28 | Geometric mean IFN-γ in arbitrary fluorescence units 2H ([4]; peptide 50 pM): 247 arbitrary fluorescence units; % CD8+ T cells producing IFN-γ 4H ([4]; peptide 50 pM): 33%; Geometric mean IFN-γ in arbitrary fluorescence units 4H ([4]; peptide 50 pM): 715 arbitrary fluorescence units; % CD8+ T cells producing IFN-γ 24H ([4]; peptide 50 pM): 29%; Geometric mean IFN-γ in arbitrary fluorescence units 24H ([4]; peptide 50 pM): 400 arbitrary fluorescence units; % CD8+ T cells producing IFN-γ 48H ([4]; peptide 50 pM): 20%; Geometric mean IFN-γ in arbitrary fluorescence units 48H ([4]; peptide 50 pM): 280 arbitrary fluorescence units |
| [am-phg][2-AOC]AGIGILT[PRG] | 80 | 77 | 24.3 and 24 | – | – | – | – | 0 | 104 arbitrary fluorescence units | 26 | 207 arbitrary fluorescence units | 30 | 378 arbitrary fluorescence units | 1 | 116 arbitrary fluorescence units | 0 | 88 arbitrary fluorescence units | 0 | 109 arbitrary fluorescence units | 27 | Geometric mean IFN-γ in arbitrary fluorescence units 2H ([4]; peptide 50 pM): 258 arbitrary fluorescence units; % CD8+ T cells producing IFN-γ 4H ([4]; peptide 50 pM): 30%; Geometric mean IFN-γ in arbitrary fluorescence units 4H ([4]; peptide 50 pM): 592 arbitrary fluorescence units; % CD8+ T cells producing IFN-γ 24H ([4]; peptide 50 pM): 16%; Geometric mean IFN-γ in arbitrary fluorescence units 24H ([4]; peptide 50 pM): 187 arbitrary fluorescence units; % CD8+ T cells producing IFN-γ 48H ([4]; peptide 50 pM): 1%; Geometric mean IFN-γ in arbitrary fluorescence units 48H ([4]; peptide 50 pM): 86 arbitrary fluorescence units |
